Source: patent US12583861B2, “Derivatives of imidazo[4,5-d]pyridazine, their preparation and their therapeutic application” (SANOFI, priority 2021, dated 2026)
Where a name gives a salt, the structure may show the parent alone.

Tests used:
human TLR7 = target: T1, human TLR7 (Homo sapiens, UniProt Q9NYK1); assay: HEK-Blue hTLR7 reporter cell assay (SEAP, NF-kB/AP-1) for stimulation of human TLR7; format: cell-based; settings: HEK-Blue hTLR7 cells; for EC50: 24 h incubation, SEAP readout, read-out: TLR7_EC50
T1 construct: host or cells: HEK293 (HEK-Blue hTLR7)
T1 sequence (Q9NYK1 27-1049): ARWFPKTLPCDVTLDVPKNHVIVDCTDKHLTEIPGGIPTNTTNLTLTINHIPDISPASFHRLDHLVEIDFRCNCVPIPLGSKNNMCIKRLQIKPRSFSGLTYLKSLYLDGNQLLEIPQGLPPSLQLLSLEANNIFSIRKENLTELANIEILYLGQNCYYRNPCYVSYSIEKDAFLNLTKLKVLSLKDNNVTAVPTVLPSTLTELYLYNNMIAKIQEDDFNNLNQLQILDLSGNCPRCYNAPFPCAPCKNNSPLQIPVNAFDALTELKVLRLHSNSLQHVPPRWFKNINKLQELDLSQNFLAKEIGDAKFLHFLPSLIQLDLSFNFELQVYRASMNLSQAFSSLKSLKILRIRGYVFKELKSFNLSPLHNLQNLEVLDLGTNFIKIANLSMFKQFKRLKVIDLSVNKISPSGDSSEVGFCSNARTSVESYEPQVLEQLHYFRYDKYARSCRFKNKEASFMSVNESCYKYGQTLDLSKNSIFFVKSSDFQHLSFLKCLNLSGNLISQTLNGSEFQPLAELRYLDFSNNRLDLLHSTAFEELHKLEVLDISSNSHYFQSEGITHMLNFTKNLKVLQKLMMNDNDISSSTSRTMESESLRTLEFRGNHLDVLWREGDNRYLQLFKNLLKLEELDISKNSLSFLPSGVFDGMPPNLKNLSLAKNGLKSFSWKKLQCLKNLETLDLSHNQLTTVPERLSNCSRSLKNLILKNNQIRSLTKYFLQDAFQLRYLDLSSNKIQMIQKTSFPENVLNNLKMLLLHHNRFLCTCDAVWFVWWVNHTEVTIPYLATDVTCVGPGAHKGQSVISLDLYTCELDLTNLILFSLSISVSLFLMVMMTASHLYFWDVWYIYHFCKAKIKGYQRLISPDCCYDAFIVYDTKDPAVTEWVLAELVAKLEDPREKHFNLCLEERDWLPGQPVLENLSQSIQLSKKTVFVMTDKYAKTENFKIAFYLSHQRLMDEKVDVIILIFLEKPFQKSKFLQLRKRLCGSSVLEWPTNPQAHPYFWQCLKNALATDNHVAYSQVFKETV
How it was run: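 Activity expressed as EC50 for half-maximal SEAP induction. Compounds, serially diluted 3-fold from 20 to 0.01 μM, were incubated 24 h at 37 °C, 5% CO2 with HEK-Blue hTLR7 reporter cells (3.10E4/well, plated 18–24 h earlier); supernatant developed with QUANTI-Blue.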

human TLR8 = target: T2, human TLR8 (Homo sapiens, UniProt Q9NR97); assay: HEK-Blue hTLR8 reporter cell assay (SEAP, NF-kB/AP-1) for stimulation of human TLR8; format: cell-based; settings: HEK-Blue hTLR8 cells; for EC50: 24 h incubation, SEAP readout, read-out: TLR8_EC50
T2 construct: host or cells: HEK293 (HEK-Blue hTLR8)
T2 sequence (Q9NR97 27-1041): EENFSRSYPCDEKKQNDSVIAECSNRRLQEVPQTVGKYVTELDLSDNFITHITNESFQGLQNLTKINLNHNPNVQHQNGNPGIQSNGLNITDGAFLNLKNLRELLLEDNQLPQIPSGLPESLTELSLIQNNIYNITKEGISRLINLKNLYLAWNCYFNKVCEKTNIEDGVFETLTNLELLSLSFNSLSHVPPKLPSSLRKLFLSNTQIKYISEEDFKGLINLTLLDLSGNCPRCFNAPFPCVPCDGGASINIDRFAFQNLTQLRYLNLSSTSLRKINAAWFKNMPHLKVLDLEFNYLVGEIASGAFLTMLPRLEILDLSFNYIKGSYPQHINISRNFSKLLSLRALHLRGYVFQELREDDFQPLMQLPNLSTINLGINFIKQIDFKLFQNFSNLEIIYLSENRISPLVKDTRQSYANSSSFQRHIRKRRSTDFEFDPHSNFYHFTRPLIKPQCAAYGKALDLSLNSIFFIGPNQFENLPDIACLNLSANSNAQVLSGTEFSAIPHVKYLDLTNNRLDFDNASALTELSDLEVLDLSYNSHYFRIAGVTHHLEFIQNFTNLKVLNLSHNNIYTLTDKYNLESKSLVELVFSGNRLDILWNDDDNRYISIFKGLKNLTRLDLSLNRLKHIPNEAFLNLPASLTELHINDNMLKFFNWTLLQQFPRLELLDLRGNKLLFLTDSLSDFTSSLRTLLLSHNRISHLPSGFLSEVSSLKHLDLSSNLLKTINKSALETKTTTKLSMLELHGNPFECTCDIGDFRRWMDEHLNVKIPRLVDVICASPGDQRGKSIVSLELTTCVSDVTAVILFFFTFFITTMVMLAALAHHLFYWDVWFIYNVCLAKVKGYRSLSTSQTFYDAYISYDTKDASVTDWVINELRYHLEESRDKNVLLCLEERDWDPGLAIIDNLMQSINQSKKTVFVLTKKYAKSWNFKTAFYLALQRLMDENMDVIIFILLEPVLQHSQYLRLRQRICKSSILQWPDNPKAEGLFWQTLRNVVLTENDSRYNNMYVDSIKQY
How it was run: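 Stimulation is quantified as secreted alkaline phosphatase in supernatant using QUANTI-Blue™ substrate. Reporter HEK293 line co-transfected with hTLR8 and SEAP under an IFN-β minimal promoter with five NF-κB/AP-1 sites; 3.10E4 cells/well, 18 to 24 h pre-culture at 37° C. before compounds.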

Row | Compound | EC50 (human TLR7) [nM] | EC50 (human TLR8) [nM] | activation at 20 µM (human TLR7; 24 h, at 20000 nM) [%] | activation at 20 µM (human TLR8; 24 h, at 20000 nM) [%]
1 | CCCCc1nc2c(N)nnc(OC(C)C)c2n1Cc1cccc(CNC)c1 [Compound 124, 2-butyl-7-isopropoxy-1-(3-((methylamino)methyl)benzyl)-1H-imidazo[4,5-d]pyridazin-4-amine] | 178 | 231 |  | 
2 | CCCCc1nc2c(N)nnc(OC(C)C)c2n1Cc1ccncc1 [Compound 76, 2-butyl-7-isopropoxy-1-(pyridin-4-ylmethyl)-1H-imidazo[4,5-d]pyridazin-4-amine 2,2,2-trifluoroacetate] | 1350 | > 20000 |  | 
3 | CCCCc1nc2c(N)nnc(OC(C)C)c2n1C [Compound 86, 2-butyl-7-isopropoxy-1-methyl-1H-imidazo[4,5-d]pyridazin-4-amine] | 4400 | 6960 |  | 
4 | CCCCc1nc2c(N)nnc(OC(C)C)c2n1Cc1ccc(CNCCOCCOCCOC)cc1 [Compound 120, 1-(4-(5,8,11-trioxa-2-azadodecyl)benzyl)-2-butyl-7-isopropoxy-1H-imidazo[4,5-d]pyridazin-4-amine] | 133 | 14400 |  | 
5 | CCCCc1nc2c(N)nnc(N(C)Cc3ccc(C#N)cc3)c2n1C [Compound 45, 4-(((4-amino-2-butyl-1-methyl-1H-imidazo[4,5-d]pyridazin-7-yl)(methyl)amino)methyl)benzonitrile] | > 20000 | 9420 |  | 
6 | Cc1nc2c(N)nnc(OC(C)C)c2n1Cc1ccc(CN)cc1 [Compound 160, 1-(4-(aminomethyl)benzyl)-7-isopropoxy-2-methyl-1H-imidazo[4,5-d]pyridazin-4-amine] |  |  | 35 | 18
7 | CCCCc1nc2c(N)nnc(OC(C)C)c2n1Cc1ccc(CN2CCCC2)cc1 [Compound 101, 2-butyl-7-isopropoxy-1-(4-(pyrrolidin-1-ylmethyl)benzyl)-1H-imidazo[4,5-d]pyridazin-4-amine] | 13 | 355 |  | 
8 | CCCCCCCCCCC(=O)NCc1ccc(Cn2c(CCCC)nc3c(N)nnc(OC(C)C)c32)cc1 [Compound 29, N-(4-((4-amino-2-butyl-7-isopropoxy-1H-imidazo[4,5-d]pyridazin-1-yl)methyl)benzyl)undecanamide] | 117 | > 20000 |  | 
9 | CCCCc1nc2c(N)nnc(OC(C)C)c2n1CCCCN [Compound 149, 3-(4-aminobutyl)-2-butyl-4-isopropoxy-imidazo[4,5-d]pyridazin-7-amine dihydrochloride salt] | 12600 | > 20000 |  | 
10 | CCCCc1nc2c(N)nnc(OC(C)C)c2n1Cc1ccc(CN2CCOCC2)cc1 [Compound 102, 2-butyl-7-isopropoxy-1-(4-(morpholinomethyl)benzyl)-1H-imidazo[4,5-d]pyridazin-4-amine] | 71 | 3830 |  | 

Next, values leading:

Row | EC50 (human TLR7) [nM] | EC50 (human TLR8) [nM] | activation at 20 µM (human TLR7; 24 h, at 20000 nM) [%] | activation at 20 µM (human TLR8; 24 h, at 20000 nM) [%] | Compound
11 | 771 | > 20000 |  |  | CCCCc1nc2c(N)nnc(-c3ccsc3)c2n1Cc1ccc(OC)cc1 [Compound 62, 2-butyl-1-(4-methoxybenzyl)-7-(thiophen-3-yl)-1H-imidazo[4,5-d]pyridazin-4-amine]
12 | 10100 | > 20000 |  |  | CCCCc1nc2c(N)nnc(C3=CCOC3)c2n1Cc1ccc(OC)cc1 [Compound 73, 2-butyl-7-(2,5-dihydrofuran-3-yl)-1-(4-methoxybenzyl)-1H-imidazo[4,5-d]pyridazin-4-amine]
13 | 2880 | > 20000 |  |  | CCCCc1nc2c(N)nnc(C3=CCCCC3)c2n1Cc1ccc(OC)cc1 [Compound 66, 2-butyl-7-(cyclohex-1-en-1-yl)-1-(4-methoxybenzyl)-1H-imidazo[4,5-d]pyridazin-4-amine]
14 | 1570 | > 20000 |  |  | CCCCc1nc2c(N)nnc(-c3ccco3)c2n1Cc1ccc(OC)cc1 [Compound 55, 2-butyl-7-(furan-2-yl)-1-(4-methoxybenzyl)-1H-imidazo[4,5-d]pyridazine-4-amine]
15 | 649 | > 20000 |  |  | CCCCc1nc2c(N)nnc(C3=CCCC3)c2n1Cc1ccc(OC)cc1 [Compound 15, 2-butyl-7-(cyclopent-1-en-1-yl)-1-(4-methoxybenzyl)-1H-imidazo[4,5-d]pyridazin-4-amine hydrochloride]
